Legend:
Experiment in all cases: Test C greenhouse herbicide test, pre- and postemergence
Format in all cases: in vivo
[1] = system: galium (catchweed bedstraw, Galium aparine)
Summary of the method: (§1)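 Preemergence: seeds sown in a loam soil–sand blend and sprayed with test chemicals in a non-phytotoxic solvent mixture containing surfactant. Postemergence: plants grown in peat-based medium and treated at 2 to 18 cm (1- to 4-leaf stage). After 13 to 15 d in a greenhouse, injury was visually rated 0–100 against controls.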

[2] = system: lambsquarters (Chenopodium album)
Summary of the method: as §1

[3] = system: blackgrass (Alopecurus myosuroides)
Summary of the method: as §1

[4] = system: ryegrass, Italian (Italian ryegrass, Lolium multiflorum)
Summary of the method: as §1

[5] = system: soybean (Glycine max)
Summary of the method: as §1

[6] = system: johnsongrass (Sorghum halepense)
Summary of the method: as §1

[7] = system: foxtail, giant (giant foxtail, Setaria faberii)
Summary of the method: as §1

[8] = system: ragweed (common ragweed, Ambrosia elatior)
Summary of the method: as §1

[9] = system: corn (Zea mays)
Summary of the method: as §1

[10] = system: morningglory (Ipomoea coccinea)
Summary of the method: as §1

[11] = system: velvetleaf (Abutilon theophrasti)
Summary of the method: as §1

[12] = system: waterhemp (common waterhemp, Amaranthus rudis)
Summary of the method: as §1

[13] = system: pigweed (Amaranthus retroflexus)
Summary of the method: as §1

[14] = system: nutsedge, yellow (yellow nutsedge, Cyperus esculentus)
Summary of the method: as §1

[15] = system: wheat (winter wheat, Triticum aestivum)
Summary of the method: as §1

[16] = system: barnyardgrass (Echinochloa crus-galli)
Summary of the method: as §1

[17] = Postemergence, 125 g ai/ha, scale 0 to 100, 0 is no effect, 100 is complete control
[18] = Postemergence, 250 g ai/ha, scale 0 to 100, 0 no effect, 100 complete control, 13 to 15 d
[19] = Preemergence, 31 g ai/ha, scale 0 to 100, 0 is no effect, 100 is complete control
[20] = Preemergence, 62 g ai/ha, scale 0 to 100, 0 is no effect, 100 is complete control
[21] = Preemergence, 125 g ai/ha, scale 0 to 100, 0 is no effect, 100 is complete control
[22] = Preemergence, 250 g ai/ha, scale 0 to 100 (0 no effect, 100 complete control)
[23] = postemergence, 62 g ai/ha, scale 0 to 100, 0 no effect, 100 complete control
[24] = Postemergence, 31 g ai/ha, 0 to 100 scale (0 no effect, 100 complete control)

Compound: CCOC(=O)Oc1c(C)nn(C)c(=O)c1-c1c(C)sc2ccc(C)cc12 [Compound 82]
- Plant response rating, Galium [1, 17]: 95
- Plant response rating, Galium [1, 18]: 95
- Plant response rating, Galium [1, 19]: 90
- Plant response rating, Galium [1, 20]: 90
- Plant response rating, Galium [1, 21]: 90
- Galium plant response rating [1, 22]: 95
- Galium plant response rating [1, 23]: 95
- Plant response rating, Lambsquarters [2, 17]: 98
- Plant response rating, Lambsquarters [2, 18]: 100
- Plant response rating, Lambsquarters [2, 19]: 85
- Plant response rating, Lambsquarters [2, 20]: 90
- Plant response rating, Lambsquarters [2, 21]: 98
- Lambsquarters plant response rating [2, 22]: 98
- Lambsquarters plant response rating [2, 23]: 98
- Blackgrass plant response rating [3, 24]: 10
- Plant response rating, Blackgrass [3, 17]: 35
- Plant response rating, Blackgrass [3, 18]: 40
- Plant response rating, Blackgrass [3, 19]: 50
- Plant response rating, Blackgrass [3, 20]: 60
- Plant response rating, Blackgrass [3, 21]: 65
- Blackgrass plant response rating [3, 22]: 80
- Blackgrass plant response rating [3, 23]: 35
- Plant response rating, Ryegrass, Italian [4, 17]: 85
- Plant response rating, Ryegrass, Italian [4, 18]: 85
- Plant response rating, Ryegrass, Italian [4, 19]: 80
- Plant response rating, Ryegrass, Italian [4, 20]: 85
- Plant response rating, Ryegrass, Italian [4, 21]: 85
- Ryegrass, Italian plant response rating [4, 22]: 90
- Ryegrass, Italian plant response rating [4, 23]: 85
- Plant response rating, Soybean [5, 17]: 5
- Plant response rating, Soybean [5, 18]: 10
- Plant response rating, Soybean [5, 19]: 0
- Plant response rating, Soybean [5, 20]: 100
- Plant response rating, Soybean [5, 21]: 0
- Soybean plant response rating [5, 22]: 0
- Soybean plant response rating [5, 23]: 10
- Plant response rating, Johnsongrass [6, 17]: 10
- Plant response rating, Johnsongrass [6, 18]: 10
- Plant response rating, Johnsongrass [6, 19]: 45
- Plant response rating, Johnsongrass [6, 20]: 65
- Plant response rating, Johnsongrass [6, 21]: 60
- Johnsongrass plant response rating [6, 22]: 40
- Johnsongrass plant response rating [6, 23]: 5
- Plant response rating, Foxtail, Giant [7, 17]: 60
- Plant response rating, Foxtail, Giant [7, 18]: 80
- Plant response rating, Foxtail, Giant [7, 19]: 60
- Plant response rating, Foxtail, Giant [7, 20]: 85
- Plant response rating, Foxtail, Giant [7, 21]: 90
- Foxtail, Giant plant response rating [7, 22]: 100
- Foxtail, Giant plant response rating [7, 23]: 25
- Plant response rating, Ragweed [8, 17]: 95
- Plant response rating, Ragweed [8, 18]: 95
- Plant response rating, Ragweed [8, 19]: 85
- Plant response rating, Ragweed [8, 20]: 90
- Plant response rating, Ragweed [8, 21]: 90
- Ragweed plant response rating [8, 22]: 95
- Ragweed plant response rating [8, 23]: 98
- Corn plant response rating [9, 24]: 35
- Plant response rating, Corn [9, 17]: 10
- Plant response rating, Corn [9, 18]: 5
- Plant response rating, Corn [9, 19]: 0
- Plant response rating, Corn [9, 20]: 0
- Plant response rating, Corn [9, 21]: 20
- Corn plant response rating [9, 22]: 25
- Corn plant response rating [9, 23]: 30
- Plant response rating, Morningglory [10, 17]: 100
- Plant response rating, Morningglory [10, 18]: 100
- Plant response rating, Morningglory [10, 19]: 85
- Plant response rating, Morningglory [10, 20]: 90
- Plant response rating, Morningglory [10, 21]: 95
- Morningglory plant response rating [10, 22]: 95
- Morningglory plant response rating [10, 23]: 100
- Plant response rating, Velvetleaf [11, 17]: 95
- Plant response rating, Velvetleaf [11, 18]: 90
- Plant response rating, Velvetleaf [11, 19]: 65
- Plant response rating, Velvetleaf [11, 20]: 80
- Plant response rating, Velvetleaf [11, 21]: 85
- Velvetleaf plant response rating [11, 22]: 90
- Velvetleaf plant response rating [11, 23]: 80
- Plant response rating, Waterhemp [12, 17]: 90
- Plant response rating, Waterhemp [12, 18]: 98
- Plant response rating, Waterhemp [12, 19]: 100
- Plant response rating, Waterhemp [12, 20]: 100
- Plant response rating, Waterhemp [12, 21]: 100
- Waterhemp plant response rating [12, 22]: 100
- Waterhemp plant response rating [12, 23]: 98
- Plant response rating, Pigweed [13, 17]: 90
- Plant response rating, Pigweed [13, 18]: 90
- Plant response rating, Pigweed [13, 19]: 95
- Plant response rating, Pigweed [13, 20]: 100
- Plant response rating, Pigweed [13, 21]: 100
- Pigweed plant response rating [13, 22]: 100
- Pigweed plant response rating [13, 23]: 90
- Plant response rating, Nutsedge, Yellow [14, 17]: 85
- Plant response rating, Nutsedge, Yellow [14, 18]: 85
- Plant response rating, Nutsedge, Yellow [14, 19]: 35
- Plant response rating, Nutsedge, Yellow [14, 20]: 60
- Plant response rating, Nutsedge, Yellow [14, 21]: 60
- Nutsedge, Yellow plant response rating [14, 22]: 90
- Nutsedge, Yellow plant response rating [14, 23]: 80
- Plant response rating, Wheat [15, 17]: 5
- Plant response rating, Wheat [15, 18]: 5
- Plant response rating, Wheat [15, 19]: 0
- Plant response rating, Wheat [15, 20]: 0
- Plant response rating, Wheat [15, 21]: 0
- Wheat plant response rating [15, 22]: 0
- Wheat plant response rating [15, 23]: 0
- Barnyardgrass plant response rating [16, 24]: 20
- Plant response rating, Barnyardgrass [16, 17]: 25
- Plant response rating, Barnyardgrass [16, 18]: 30
- Plant response rating, Barnyardgrass [16, 19]: 10
- Plant response rating, Barnyardgrass [16, 20]: 55
- Plant response rating, Barnyardgrass [16, 21]: 70
- Barnyardgrass plant response rating [16, 22]: 90
- Barnyardgrass plant response rating [16, 23]: 25

Reference: patent US10597388B2, “Pyridazinone herbicides” (FMC CORPORATION, priority 2014, dated 2020)
